Data as given in patent publication US6545131B1, “Tissue specific prodrug” (priority 1997, dated 2003).
Starred links: 1 amine or outer side, 2 acyl side, 3 side chain; linkers in the order of their positions; H or OH if unused. Residues, ends and D or L forms follow the SMILES beside them. *: point of attachment. AMC = Cc1cc(=O)oc2cc(N*)ccc12; Morpholide = C1CN(*)CCO1; CO = O=C([*:1])[*:2]

What was measured:
TSU-Pr1 cells = experiment: Clonogenic survival of TSU-Pr1 cells after 72 hours exposure to TG analogs; type: cell-based, human; settings: TSU-Pr1, 72 hours exposure; mean (n=5) ± standard error; read-out: LC50 (concentration needed to kill 50% of clonogenic cells)
Experimental: The primary amine-containing thapsigargin analogs of the invention have non-specific toxicity toward cells. This toxicity is measured as the concentration of analog needed to kill 50% of clonogenic cells (LC50). The LC50 of the analogs of the invention is desirably at most 20 μM, preferably at most 5 μM, and more preferably at most 500 nM of analog.
Percentage clonogenic survival of TSU-Pr1 (2×10^5 cells) following 72 hours of exposure to varying concentrations of TG analogs was performed as described in Martikainen et al. Cancer Res., 51, 4693-4700 (1991).
(§1) The IC50 results are mean (n=3)±standard error. The LC50 results are mean (n=5)±standard error. The entry “ND” stands for “not determined”. Clonogenic survival not determined above 10 μM for dBTG. Analogs with −boc have a t-butoxycarbonyl (boc) protected amino group.
The androgen responsive PSA-producing LNCaP and androgen independent PSA non-producing TSU-Pr1 are human prostate cancer lines were obtained from ATCC (Rockville, Md.) and maintained by serial passage in RPMI 1640 media containing 10% fetal calf serum with 100 units/ml penicillin G, and 100 units/ml streptomycin sulfate (antibiotics from M.A. Bioproducts, Walkerville, Md.) as standard media in 5% CO2/95% air at 37° C. The origins and characteristics of the LNCaP and TSU-Pr1 cell lines are described in Horoszewicz, et al., Cancer Res., 43:1809-1818, (1980)and Iizumi, et al., J. Urol, 137: 1304-1306, (1987).

[1] = target: T1, endoplasmic reticulum Ca2+-ATPase (SERCA), SR vesicles from rabbit skeletal muscle (Oryctolagus cuniculus, UniProt P04191); experiment: SERCA inhibition: 45Ca2+ uptake to sarcoplasmic reticulum vesicles; type: biochemical; settings: mean (n=3) ± standard error; 5 μg/ml SR protein, free Ca2+ 100 nM, 4 min uptake; read-out: IC50 (50% inhibition of 45Ca2+ uptake to SR vesicles)
T1 construct: sarcoplasmic reticulum (SR) vesicles prepared from rabbit skeletal muscle; from tissue; host or cells: rabbit skeletal muscle sarcoplasmic reticulum vesicles
T1 sequence (P04191 1-994 isoform P04191-2): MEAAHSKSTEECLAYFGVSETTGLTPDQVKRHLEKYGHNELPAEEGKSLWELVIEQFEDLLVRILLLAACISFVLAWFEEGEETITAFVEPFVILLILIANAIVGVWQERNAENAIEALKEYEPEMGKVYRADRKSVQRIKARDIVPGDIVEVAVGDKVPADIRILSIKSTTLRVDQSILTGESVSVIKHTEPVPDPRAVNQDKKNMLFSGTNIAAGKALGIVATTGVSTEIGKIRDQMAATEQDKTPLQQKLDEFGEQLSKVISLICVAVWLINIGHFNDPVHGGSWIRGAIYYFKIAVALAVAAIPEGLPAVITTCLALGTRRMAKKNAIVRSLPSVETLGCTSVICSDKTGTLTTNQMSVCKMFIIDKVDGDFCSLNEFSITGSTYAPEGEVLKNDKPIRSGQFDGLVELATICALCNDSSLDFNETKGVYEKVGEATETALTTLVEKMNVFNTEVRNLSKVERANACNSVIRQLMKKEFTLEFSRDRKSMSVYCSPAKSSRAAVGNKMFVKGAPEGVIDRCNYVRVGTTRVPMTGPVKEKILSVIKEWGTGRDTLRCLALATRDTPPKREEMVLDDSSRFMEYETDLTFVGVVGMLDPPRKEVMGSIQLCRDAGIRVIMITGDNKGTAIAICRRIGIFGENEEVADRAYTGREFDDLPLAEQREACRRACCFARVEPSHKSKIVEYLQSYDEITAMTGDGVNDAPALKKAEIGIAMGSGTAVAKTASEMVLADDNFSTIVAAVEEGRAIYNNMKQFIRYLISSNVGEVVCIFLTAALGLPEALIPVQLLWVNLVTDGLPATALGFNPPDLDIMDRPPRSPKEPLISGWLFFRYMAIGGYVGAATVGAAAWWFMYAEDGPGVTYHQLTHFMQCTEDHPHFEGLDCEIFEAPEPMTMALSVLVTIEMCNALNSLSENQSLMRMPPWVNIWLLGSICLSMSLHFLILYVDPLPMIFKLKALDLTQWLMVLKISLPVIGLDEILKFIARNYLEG
Experimental: The primary amine-containing thapsigargin analogs of the invention have endoplasmic reticulum Ca^2+-ATPase inhibitory activity. This activity is measured as the concentration of analog needed to inhibit 50% of this ATPase (IC50). The IC50 of the analogs of the invention is desirably at most 500 nM, preferably at most 200 nM, and more preferably at most 50 nM of analog.
The inhibitory potency of thapsigargin and its analogs was determined as the concentration required to produce 50% inhibition (i.e. IC50) of ^45Ca^2+ uptake to sarcoplasmic reticulum (SR) vesicles prepared from rabbit skeletal muscle by the method of De Meis and Hasselbach (J. Biol. Chem., 246: 4759-4763, 1971). The ^45Ca^2+ uptake assay was as described previously (Christensen, et al., FEBS, 335: 345-348, 1993), with the following modifications: 5 μg/ml of SR protein was incubated at 25EC and free Ca^2+ adjusted to 100 nM using 4 min. uptake time. Under these conditions, Ca^2+ could proceed linearly with time for at least 8 minutes. Measurements of Ca^2+ within TSU cells was determined as described previously (Lin et al., The Prostate, 33:201-207, 1997).
as §1

[2] = Stability of PSA substrates in serum (AMC release); type: in vitro ADME; settings: 0.2 mM substrate
Excerpt: (§2) PSA was purified from human seminal plasma as described in Christensson, et al. Eur. J. Biochem. 194:755-765, (1990). Plasmin, urokinase, tissue plasminogen activator (TPA), human plasma and porcine pancreatic kallikrein and a 1-antichymotrypsin were obtained from Calbiochem (San Diego, Calif.). All other proteases were obtained from Sigma Chemical Co. (St. Louis, Mo.). Mouse serum was obtained from East Acres Biologicals (South Bridge, Mass.). Goat and calf sera were obtained from Gibco BRL (Grand Island, N.Y.). Rat serum was obtained in-house from sacrificed animals. Human serum was obtained from volunteers.
(§3) Cleavage was studied by measuring fluorescence change secondary to AMC release. Fluorescence detection was carried out with a Fluoroskan II 96 well fluorometric plate reader (ICN Biomedicals, Costa Mesa, Calif.), with excitation wavelength 355 nm and emission wavelength 460 nm. Data were collected and analyzed using Deltasoft III software (Biometallics, Princeton, N.J.). All reactions were performed at room temperature by the addition of substrate and proteases into PSA buffer, described below, in a final volume of 200 μL. The results were determined from the initial linear increase of fluorescence and were expressed as the picomoles of AMC released per minute based upon comparison to a standard curve of the fluorescence of known amounts of AMC (i.e., fluorescence was linear form 20 to 300 picomoles of AMC). The data were analyzed by Lineweaver-Burke reciprocal plots to determine the Michaelis-Menten constant (i.e., Km) expressed as the amount of substrate needed to saturate half of the enzyme and the catalytic rate constant (i.e., kcat) expressed as the amount of substrate converted to product per time per amount of enzyme.
Because the prodrug can be given systemically via the blood, it is useful to determine the stability of the substrates in sera from a variety of species. The substrates and experimental details are found as described in Example 1.
The amino acid sequences expressed in one letter amino acid code represent the following amino acid sequences in the three letter amino acid code: EHSSKLQ (Glu-His-Ser-Ser-Lys-Leu-Gln; SEQ ID NO:10), QNKISYQ (Gln-Asn-Lys-Ile-Ser-Tyr-Gln; SEQ ID NO:11), ENKISYQ (Glu-Asn-Lys-Ile-Ser-Tyr-Gln; SEQ ID NO:12) and ATKSKQH (Ala-Thr-Lys-Ser-Lys-Gln-His; SEQ ID NO:13). Determinations listed in the table were carried out with substrates at 0.2 mM concentration in the PSA assay buffer (50 mM Tris/0.1M NaCl pH 7.8). AMC is 7-amino-4-methylcoumarin. The human serum used was 100% for each assay. The entry “UD” stands for “undetectable”, and means that not more than 0.01 picomole of substrate per minute was cleaved.

[3] = target: T2, PSA (prostate specific antigen) (Homo sapiens, UniProt P07288); experiment: Cleavage of AMC-labelled peptide substrates by purified PSA (fluorescence of released AMC; Lineweaver-Burke kinetics); type: biochemical
T2 construct: PSA was purified from human seminal plasma; from tissue; host or cells: human seminal plasma
T2 sequence (P07288 25-261): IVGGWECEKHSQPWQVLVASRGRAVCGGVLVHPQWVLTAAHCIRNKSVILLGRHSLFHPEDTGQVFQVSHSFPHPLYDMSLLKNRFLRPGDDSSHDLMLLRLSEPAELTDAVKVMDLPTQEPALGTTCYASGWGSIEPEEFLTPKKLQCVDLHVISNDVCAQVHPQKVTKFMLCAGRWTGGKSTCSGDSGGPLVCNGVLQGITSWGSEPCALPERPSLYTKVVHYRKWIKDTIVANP
Experimental: (§4) The peptides discussed herein were custom synthesized by Enzyme Systems Products (Dublin, Calif.) and, after HPLC separation and purification to >95%, the molecular weights were confirmed by mass spectroscopy. All peptides had morpholinocarbonyl protecting the amino terminus and 7-amino-4-methylcoumarin (AMC) attached via an amide bond to the carboxyl group of the carboxy-terminal amino acid. Peptides were first dissolved in distilled water (5 mM) and then diluted into PSA assay buffer (50 mM Tris/0.1M NaCl pH 7.8). The glutamine-AMC peptide had the amino terminus and side chain amine unprotected and was obtained from Bachem (Torrance, Calif.).
as §2, §3
(§5) Each assay contains 200 picomoles of the particular protease and 0.2 mM concentration of the particular substrate (i.e., 40,000 picomoles/200 μL of assay volume). The amino acid sequences expressed in one letter amino acid code represent the following amino acid sequences in the three letter amino acid code: EHSSKLQ (Glu-His-Ser-Ser-Lys-Leu-Gln; SEQ ID NO:10), QNKISYQ (Gln-Asn-Lys-Ile-Ser-Tyr-Gln; SEQ ID NO:11), ENKISYQ (Glu-Asn-Lys-Ile-Ser-Tyr-Gln; SEQ ID NO:12), and ATKSKQH (Ala-Thr-Lys-Ser-Lys-Gln-His; SEQ ID NO:13). Determinations listed in the table were carried out with substrates at 0.2 mM concentration in the PSA assay buffer (50 mM Tris/0.1M NaCl pH 7.8). The entry “UD” stands for “undetectable” and means that at most, 0.1 pmole of substrate cleavage per minute per 200 pmole protease took place. Asterisks represent experiments not performed. Abbreviations are as follows: PSA (prostate specific antigen), Chymo (chymotrypsin), Urokin (urokinase), TPA (tissue plasminogen activator), Thromb (thrombin), Kallik (human kallikrein, hK1).
The data in Table 2 are the results of kinetic experiments with the peptide substrates used in Example 1. Experimental details are found in Example 1.
The amino acid sequences expressed in one letter amino acid code represent the following amino acid sequences in the three letter amino acid code: EHSSKLQ (Glu-His-Ser-Ser-Lys-Leu-Gln; SEQ ID NO:10), HSSKLQ (His-Ser-Ser-Lys-Leu-Gln; SEQ ID NO:7), SKLQ (Ser-Lys-Leu-Gln; SEQ ID NO:1), and ATKSKQH (Ala-Thr-Lys-Ser-Lys-Gln-His; SEQ ID NO:13). […]

urokinase = target: T3, urokinase (Homo sapiens, UniProt P00749); experiment: Peptide-AMC cleavage by purified extracellular protease; type: biochemical; settings: 0.2 mM substrate, PSA assay buffer pH 7.8
T3 construct: purchased Calbiochem
Experimental: as §4, §2, §3, §5

Elastase = experiment: as above; type: biochemical; settings: 0.2 mM substrate, PSA assay buffer pH 7.8
Experimental: as §4, §2, §3, §5

Plasmin = target: T4, Plasmin (Homo sapiens, UniProt P00747); experiment: as above; type: biochemical; settings: 0.2 mM substrate, PSA assay buffer pH 7.8
T4 construct: purchased Calbiochem
T4 sequence (P00747 581-810 limits assumed, species assumed): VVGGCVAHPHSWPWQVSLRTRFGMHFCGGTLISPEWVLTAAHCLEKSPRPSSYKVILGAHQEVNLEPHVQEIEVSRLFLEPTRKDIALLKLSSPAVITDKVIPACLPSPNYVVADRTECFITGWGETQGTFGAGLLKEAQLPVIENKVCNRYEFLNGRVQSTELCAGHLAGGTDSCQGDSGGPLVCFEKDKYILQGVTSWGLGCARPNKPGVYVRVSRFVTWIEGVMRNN
T4 sequence (P00747 97-580 partner limits assumed, species assumed): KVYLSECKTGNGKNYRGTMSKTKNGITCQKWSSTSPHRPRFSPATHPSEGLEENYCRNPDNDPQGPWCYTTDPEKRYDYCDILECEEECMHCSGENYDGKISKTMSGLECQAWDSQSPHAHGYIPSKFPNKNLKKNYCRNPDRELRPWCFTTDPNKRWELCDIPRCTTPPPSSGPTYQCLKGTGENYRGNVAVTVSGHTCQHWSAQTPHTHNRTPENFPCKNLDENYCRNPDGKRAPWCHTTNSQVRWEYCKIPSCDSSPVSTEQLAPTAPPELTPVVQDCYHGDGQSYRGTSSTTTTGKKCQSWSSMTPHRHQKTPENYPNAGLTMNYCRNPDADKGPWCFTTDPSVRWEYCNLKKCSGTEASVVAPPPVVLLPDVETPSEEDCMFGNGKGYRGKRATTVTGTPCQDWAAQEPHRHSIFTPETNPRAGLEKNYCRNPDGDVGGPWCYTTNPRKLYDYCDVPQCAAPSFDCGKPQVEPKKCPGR
Experimental: as §4, §2, §3, §5

chymotrypsin = target: T5, chymotrypsin (Bos taurus, UniProt P00766); experiment: as above; type: biochemical; settings: 0.2 mM substrate, PSA assay buffer pH 7.8
T5 construct: purchased Sigma Chemical Co
Experimental: as §4, §2, §3, §5

thrombin = target: T6, thrombin (Homo sapiens, UniProt P00734); experiment: as above; type: biochemical; settings: 0.2 mM substrate, PSA assay buffer pH 7.8
T6 construct: purchased Sigma Chemical Co
Experimental: as §4, §2, §3, §5

[4] = target: T7, tissue plasminogen activator (TPA) (Homo sapiens, UniProt P00750); experiment: as above; type: biochemical; settings: 0.2 mM substrate, PSA assay buffer pH 7.8
T7 construct: purchased Calbiochem
T7 sequence (P00750 36-562, species assumed): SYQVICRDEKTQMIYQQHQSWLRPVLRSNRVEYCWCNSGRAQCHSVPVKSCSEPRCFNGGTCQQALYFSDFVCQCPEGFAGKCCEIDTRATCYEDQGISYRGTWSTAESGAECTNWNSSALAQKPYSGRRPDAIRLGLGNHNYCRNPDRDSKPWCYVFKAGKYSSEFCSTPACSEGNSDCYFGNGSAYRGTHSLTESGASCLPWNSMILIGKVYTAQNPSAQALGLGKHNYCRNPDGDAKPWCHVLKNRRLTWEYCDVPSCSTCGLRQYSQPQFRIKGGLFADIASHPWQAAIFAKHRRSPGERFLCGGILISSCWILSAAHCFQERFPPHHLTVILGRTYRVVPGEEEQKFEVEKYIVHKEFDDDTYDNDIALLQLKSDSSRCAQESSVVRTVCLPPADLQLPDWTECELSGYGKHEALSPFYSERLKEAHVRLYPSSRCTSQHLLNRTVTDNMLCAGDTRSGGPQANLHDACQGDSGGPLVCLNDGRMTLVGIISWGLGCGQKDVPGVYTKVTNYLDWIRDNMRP
Experimental: as §4, §2, §3, §5

human kallikrein, hK1 = experiment: as above; type: biochemical; settings: 0.2 mM substrate, PSA assay buffer pH 7.8
Experimental: as §4, §2, §3, §5

Trypsin = experiment: as above; type: biochemical; settings: 0.2 mM substrate, PSA assay buffer pH 7.8
Experimental: as §4, §2, §3, §5

[5] = PSA substrate, PSA assay buffer pH 7.8, Lineweaver-Burke

## CC=C(C)C(=O)OC1C(C)=C2C(C1OC(=O)CCCCCCC)C(C)(OC(C)=O)CC(OC(=O)C=Cc1ccc(N)cc1)C1(O)C2OC(=O)C1(C)O (stereo not shown) [ACT, 8-O-(4-aminocinnamoyl)-8-O-debutanoylthapsigargin]
TSU-Pr1 cells
  CC50: 0.1 ± 0.006 µM
[1]
  IC50: 0.0187 ± 0.0002 µM

## Cc1cc(=O)oc2cc(NC(=O)[C@H](Cc3c[nH]cn3)NC(=O)[C@H](CCC(N)=O)NC(=O)[C@H](CCCCN)NC(=O)[C@H](CO)NC(=O)[C@H](CCCCN)NC(=O)[C@@H](NC(=O)[C@H](C)NC(=O)N3CCOCC3)[C@@H](C)O)ccc12 [ATKSKQH, Ala-Thr-Lys-Ser-Lys-Gln-His] ({Morpholide-CO}-ATKSKQH-{AMC})
[2]
  picomles AMC released/minute: Calf: UD (not more than 0.01 picomole of substrate per minute was cleaved)
  picomles AMC released/minute: Fetal Calf: 1.19 picomoles/minute
  picomles AMC released/minute: Goat: 0.35 picomoles/minute
  picomles AMC released/minute: Mouse: 0.60 picomoles/minute
  picomles AMC released/minute: Rat: 4.31 picomoles/minute
[2]; human serum 100%
  picomles AMC released/minute: Human: UD (not more than 0.01 picomole of substrate per minute was cleaved)
[3]; 0.2 mM substrate, PSA assay buffer pH 7.8, room temperature
  Picomoles of substrate cleaved/minute/200 pmoles of indicated protease: PSA: 16.0 picomoles/minute/200 pmoles pr
[3]; [5]
  Kcat: 0.0091 s⁻¹
  Km: 310 µM
urokinase
  Picomoles of substrate cleaved/minute/200 pmoles of indicated protease: Urokin: UD (at most, 0.1 pmole of substrate cleavage per minute per 200 pmole protease took place)
Elastase
  Picomoles of substrate cleaved/minute/200 pmoles of indicated protease: Elastase: UD (at most, 0.1 pmole of substrate cleavage per minute per 200 pmole protease took place)
Plasmin
  Picomoles of substrate cleaved/minute/200 pmoles of indicated protease: Plasmin: UD (at most, 0.1 pmole of substrate cleavage per minute per 200 pmole protease took place)
chymotrypsin
  Picomoles of substrate cleaved/minute/200 pmoles of indicated protease: Chymo: 38.8 picomoles/minute/200 pmoles pr
thrombin
  Picomoles of substrate cleaved/minute/200 pmoles of indicated protease: Thromb: 0.2 picomoles/minute/200 pmoles pr
[4]
  Picomoles of substrate cleaved/minute/200 pmoles of indicated protease: TPA: UD (at most, 0.1 pmole of substrate cleavage per minute per 200 pmole protease took place)
Human kallikrein, hK1
  Picomoles of substrate cleaved/minute/200 pmoles of indicated protease: Kallik: UD (at most, 0.1 pmole of substrate cleavage per minute per 200 pmole protease took place)
Trypsin
  Picomoles of substrate cleaved/minute/200 pmoles of indicated protease: Trypsin: UD (at most, 0.1 pmole of substrate cleavage per minute per 200 pmole protease took place)
